Experimental data as given in article PMC4163472, “Crystal Structure of Deinococcus radiodurans RecQ Helicase Catalytic Core Domain: The Interdomain Flexibility” (BioMed Research International, 2014).

Molecular target: T1, DrRecQ helicase catalytic core (Deinococcus radiodurans, UniProt Q9RUU2)
T1 construct: gene DR_1289; residues 5-517 seen in the complex (296-300 not visible); monomer
T1 sequence (Q9RUU2 1-517): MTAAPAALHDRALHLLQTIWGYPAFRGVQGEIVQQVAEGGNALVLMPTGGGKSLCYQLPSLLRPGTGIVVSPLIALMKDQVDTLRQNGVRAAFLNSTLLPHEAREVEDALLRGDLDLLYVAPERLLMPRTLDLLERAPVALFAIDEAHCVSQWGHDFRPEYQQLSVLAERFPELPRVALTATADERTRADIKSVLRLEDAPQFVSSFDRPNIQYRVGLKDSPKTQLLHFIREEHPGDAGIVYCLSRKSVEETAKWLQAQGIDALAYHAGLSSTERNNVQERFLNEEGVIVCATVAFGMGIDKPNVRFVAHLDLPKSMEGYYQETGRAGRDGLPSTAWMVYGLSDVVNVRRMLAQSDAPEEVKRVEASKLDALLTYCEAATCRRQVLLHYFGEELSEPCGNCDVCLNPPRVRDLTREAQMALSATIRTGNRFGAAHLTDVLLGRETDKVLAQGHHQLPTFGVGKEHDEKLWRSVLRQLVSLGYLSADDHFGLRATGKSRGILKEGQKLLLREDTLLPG
Test: X-ray crystallography, […] A
Type: binding
Details: crystallised in 0.1 M imidazole pH 7.2, 16% PEG 20K; nucleotide pocket of D1 domain (motifs 0 and I); no magnesium added; authors suggest ADP arose from ATP hydrolysed during crystallization

## Nc1ncnc2c1ncn2[C@@H]1O[C@H](COP(=O)(O)OP(=O)(O)O)[C@@H](O)[C@H]1O [ADP]
  X-ray crystallography, 2.9 A: ADP is bound with extensive interactions with the protein
